Assay results from patent US20110152228A1, “SPRAYABLE PHARMACEUTICAL COMPOSITIONS COMPRISING A CORTICOID AND AN OILY PHASE” (Galderma, S.A., priority 2005, published 2011).

Experiments:
[1] = Maximum solubility of clobetasol propionate in solvent oils, assessed visually (clarity/cloudiness); format: physicochemical
Description: (§1) The maximum solubility of clobetasol propionate was studied in various solvent oils according to the invention, in order to allow the choice most suitable for the concentration of active agent to be solubilized.
The solubility can also be assessed visually. Thus, minute proportions of the active agent are gradually added to the solvent oil with stirring. Visual observation of the clarity of the solution is carried out.

[2] = Maximum solubility of clobetasol propionate in solvent oils, UV assaying method; format: physicochemical
Description: as §1
It is measured by the UV assaying method.
Saturated solutions are prepared according to the following protocol:
0.1% of clobetasol propionate is added to the oily excipient.
The entire mixture is stirred overnight and then left for two hours without stirring.
The solutions for UV-assaying are then prepared by taking the supernatant 0.1 g of this saturated solution is weighed into a 100 ml volumetric flask and then made up to 100 ml with absolute ethanol. The assaying makes it possible to obtain data for maximum solubility of the active agent in the solvent oil under consideration.

- Visual solubility ([1]; solvent: Caprylic/capric triglycerides, maximum solubility): 0.25%
- Visual solubility ([1]; solvent: Dioctyl ether): insoluble
- Visual solubility ([1]; solvent: Isopropyl palmitate, maximum solubility): 0.14%
- Visual solubility ([1]; solvent: Octyldodecanol, maximum solubility): 0.16%
- UV Solubility at 266 nm ([2]; solvent: Cetearyl isononanoate): 0.16%
- UV Solubility at 266 nm ([2]; solvent: Dioctyl ether): 0.12%
- UV Solubility at 266 nm ([2]; solvent: Ethyl oleate): 0.79%
- UV Solubility at 266 nm ([2]; solvent: Isopropyl palmitate): 0.17%
- UV Solubility at 266 nm ([2]; solvent: Oleic acid): 0.45%
- UV Solubility at 266 nm ([2]; solvent: Oleyl alcohol): 0.86%
SMILES: CCC(=O)O[C@]1(C(=O)CCl)[C@@H](C)C[C@H]2[C@@H]3CCC4=CC(=O)C=C[C@]4(C)[C@@]3(F)[C@@H](O)C[C@@]21C [clobetasol propionate]
